Assay results reported in patent publication US20050222402A1, “Dna encoding rat bombesin receptor subtype-3 (brs-3) and uses thereof” (priority 2001, published 2005).
Non-standard residues stand in square brackets, D forms with d. Residues, ends and D or L forms follow the SMILES beside them. Nle = CCCC[C@H](N)C(=O)O; βAla = NCCC(=O)O

Tests used:
Rat BRS-3/E2 (RB3-E2) = biological target: T1, Rat BRS-3/E2 (RB3-E2) (Rattus norvegicus, UniProt Q8K418, E210K/I208V/N204T/Q192R/R196K/R211K/V198M); experiment: Calcium mobilization assay (FLIPR), chimeric receptor; format: cell-based, rat/human
T1 construct: expressed in transfected cells; host or cells: 293EBNA cells, pE3 expression vector
T1 sequence (Q8K418 1-399 Q192R/R196K/V198M/N204T/I208V/E210K/R211K): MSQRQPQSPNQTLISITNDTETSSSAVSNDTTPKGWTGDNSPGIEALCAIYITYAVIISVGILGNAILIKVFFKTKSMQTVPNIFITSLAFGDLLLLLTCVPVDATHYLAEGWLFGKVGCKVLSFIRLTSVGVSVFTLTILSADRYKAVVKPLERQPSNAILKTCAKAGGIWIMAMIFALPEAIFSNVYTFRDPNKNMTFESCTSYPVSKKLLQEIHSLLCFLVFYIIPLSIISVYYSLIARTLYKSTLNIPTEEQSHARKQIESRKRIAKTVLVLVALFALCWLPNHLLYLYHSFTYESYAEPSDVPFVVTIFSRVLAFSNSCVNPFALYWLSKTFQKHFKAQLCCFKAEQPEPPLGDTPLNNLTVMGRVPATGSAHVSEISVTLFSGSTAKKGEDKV
From the text: (§1) Chimeric rat/human BRS-3 genes and substitution mutant rat BRS-3 genes were constructed by using PCR mutagenesis techniques (Fong, T. in Structure-function analysis of G protein coupled receptors, J, Wess, ed, Wiley-Liss, pp. 1-20, (1999)). All the mutant and wild type BRS-3 genes were cloned into pE3 expression vector which contains CMV early promoter, hygromycin-resistance gene and OriP segment from Epstein-Bar virus.
(§2) The functional activity of rat BRS-3 was also studied by measuring the agonist-induced calcium mobilization response using a Fluorescence Imaging Plate Reader (Molecular Devices, Sunnyvale, Calif.). Transfected 293EBNA cells were plated onto poly-D-lysine coated 96-well plates with black wall and clear bottom (Becton Dickinson, Franklin Lakes, N.J.). After 16-48 hr culture, the cells were loaded with 4 uM Fluo-3-AM fluorescent calcium-indicator dye (Molecular Probes, Eugene, OR) in assay buffer (Hank's balanced salts solution, 10 mM HEPES, pH7.4, 0.1% bovine serum albumin, 2.5 mM probenecid).
(§3) The changes in intracellular calcium concentration, as indicated by Fluo-3 fluorescence, were immediately measured by FLIPR. Maximal changes in fluorescence over base line were used to determine agonist response. […]
(§4) The EC50 values were mean±S.E. calculated from dose-response curves of 3-5 repeated experiments using FLIPR assays.

Rat BRS-3/E3 (RB3-E3) = biological target: T2, Rat BRS-3/E3 (RB3-E3) (Rattus norvegicus, UniProt Q8K418, A302V/D306A/E299Q/E303D/P308H/S300T/V307M/V310I/V311F/Y298S); experiment: as above; format: cell-based, rat/human
T2 construct: expressed in transfected cells; host or cells: 293EBNA cells, pE3 expression vector
T2 sequence (Q8K418 1-399 Y298S/E299Q/S300T/A302V/E303D/D306A/V307M/P308H/V310I/V311F): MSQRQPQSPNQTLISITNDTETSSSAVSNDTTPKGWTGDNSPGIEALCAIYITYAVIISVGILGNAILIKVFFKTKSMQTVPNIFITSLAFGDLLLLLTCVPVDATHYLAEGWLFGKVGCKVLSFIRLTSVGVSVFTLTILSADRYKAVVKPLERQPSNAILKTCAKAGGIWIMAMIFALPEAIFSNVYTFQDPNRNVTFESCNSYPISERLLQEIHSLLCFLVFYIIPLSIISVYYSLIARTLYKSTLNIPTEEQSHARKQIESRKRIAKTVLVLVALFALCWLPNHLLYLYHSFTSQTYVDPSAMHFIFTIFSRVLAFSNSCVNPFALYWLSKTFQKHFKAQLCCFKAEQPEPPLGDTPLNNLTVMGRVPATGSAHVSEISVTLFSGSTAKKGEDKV
From the text: as §1, §2, §3, §4

CCCC[C@H](NC(=O)[C@H](Cc1ccccc1)NC(=O)[C@H](Cc1cnc[nH]1)NC(=O)CCNC(=O)[C@@H](NC(=O)[C@H](C)NC(=O)[C@H](Cc1c[nH]c2ccccc12)NC(=O)[C@H](CCC(N)=O)NC(=O)[C@H](N)Cc1ccc(O)cc1)C(C)C)C(N)=O [dYB, [D-Tyr6-betaAla11-Phe13-Nle14] bombesin (6-14)] (H-[dY]QWAV[βAla]HF[Nle]-NH2)
EC50 (Rat BRS-3/E2 (RB3-E2)): 0.99 ± 0.14 µM | EC50 (Rat BRS-3/E3 (RB3-E3)): 0.0028 ± 0.0006 µM
